From patent publication US11723886B2, “Targeting ocular diseases with novel APE1/Ref-1 inhibitors” (Indiana University Research and Technology Corporation, priority 2018, dated 2023)

Experiments:
[1] = system: HRECs; assay: EdU incorporation and Ki-67 staining in HRECs; format: cell-based, human
Method: EdU incorporation, Ki-67 Staining and TUNEL. These assays were carried out as described previously (Basavarajappa et al., PLoS One 9:e95694 (2014); Basavarajappa et al., EMBO Mol Med 9:786-801 (2017)) with the exception of using chamber slides, not coverslips. Briefly, cells (30,000 per well) were seeded on 8-well chamber slides coated with attachment factors and allowed to attach overnight. Cells were treated with the indicated compound concentrations for 17 hours (overnight). To assay proliferation, cells were incubated with EdU in complete media for 8 hours at 37° C. Cells were then fixed in 4% paraformaldehyde for 20 minutes and permeabilized using 0.25% Triton X-100 prepared in PBS. Cells were incubated with a rabbit-specific monoclonal antibody against Ki-67 (D3B5) (#9129; Cell Signaling, Danvers, Mass.) (1:400) overnight at 4° C. Secondary antibody was Alexa Fluor goat anti-rabbit 488 (A11034; Invitrogen, Carlsbad, Calif.) with DAPI counter-stain for nuclear staining. Proliferating cells that incorporated EdU were detected using the Click-iT EdU Imaging kit (Invitrogen, Carlsbad, Calif.). […] The cells were imaged using a Zeiss AxioImager D2 microscope or an LSM 700 confocal microscope and the percentage of positive cells was counted on three low-power (for TUNEL) or high-power (for Ki-67 and EdU) fields per well using ImageJ software.

[2] = system: HRECs; assay: Propidium iodide cell cycle analysis in HRECs; format: cell-based, human; conditions: high doses, 24 hours
Method: Cell cycle analysis. HRECs (2×10^6) were grown in EGM-2 medium. Cells were serum starved in EBM-2 medium overnight, then treated with the indicated concentrations of APX2009 or APX2014 along with DMSO control for 24 hours in complete medium. Cells were washed twice in ice-cold PBS followed by fixation in 66% ethanol solution overnight at 4° C. Fixed cells were again washed twice in ice-cold PBS and the pellets were resuspended in propidium iodide staining solution for 30 minutes at 37° C. (20 μg/mL propidium iodide prepared in 1×PBS containing 0.1% Triton X-100 and 100 μg/mL RNase A). After incubation cells were analyzed using flow cytometry (FACSCalibur, BD Biosciences, San Jose, Calif.). Pulse shape analysis was used to exclude doublets and debris. The single cell population was then assessed by the FL2 area histogram plot using ModFit software (v. 5.0) and cell cycle profiles were generated.

[3] = system: NF-κB p65; assay: NF-κB p65 nuclear translocation assay in TNF-α stimulated HRECs; format: cell-based, human; conditions: 10 ng/ml TNF-α
Method: NF-κB p65 nuclear translocation assay. The NF-κB nuclear translocation assay was performed by seeding 30,000 HRECs/well on an 8-well chamber slide coated with attachment factors. The cells were grown in EGM-2 medium overnight before treating with indicated concentrations of APX2009 and APX2014, or 10 μM BAY 11-7082 (Sigma, St. Louis, Mo.) as a positive control NF-κB inhibitor. After 17 hours incubation, the media was replaced with EBM-2 (minimal medium) with indicated concentrations of compound or DMSO for 1 hour. The cells were then stimulated with 10 ng/ml TNF-α in EBM-2 for 20 minutes at 37° C. to activate NF-κB. Cells were then fixed in 4% paraformaldehyde and permeabilized using 0.5% Triton X-100 solution prepared in PBS. The cells were incubated with a monoclonal antibody against NF-κB p65 (sc-8008; Santa Cruz, Santa Cruz, Calif.) (1:50) overnight at 4° C., followed by Alexafluor 555 goat anti-mouse secondary antibody (1:2000) for one hour. The cells were counter-stained with Hoechst 33342 for nuclear staining and then mounted using Everbrite hardset mounting medium. The cells were imaged using a Zeiss AxioImager D2 microscope.

[4] = system: murine choroidal explants; assay: Ex vivo choroidal sprouting assay; format: cell-based, mouse; conditions: for reduction of choroidal sprouting compared to control: 48 hours
Excerpt: Animals. All animal experiments were approved by the Indiana University School of Medicine Institutional Animal Care and Use Committee and followed the guidelines of the Association for Research in Vision and Ophthalmology Statement for the Use of Animals in Ophthalmic and Visual Research. Wild-type female C57BL/6 mice, 6-8 weeks of age, were purchased from Envigo (Indianapolis, Ind.; for choroidal sprouting experiments) or Jackson Laboratory (Bar Harbor, Me.; for L-CNV) and housed under standard conditions (Wenzel et al., Mol Vis 21:515-522 (2015)). Mice were anesthetized for all procedures by intraperitoneal injections of 90 mg/kg ketamine hydrochloride and 5 mg/kg xylazine, with intraperitoneal atipamezole reversal (1 mg/kg). Treatments were randomly assigned by cage.
Choroidal sprouting assay. Ex vivo Choroidal sprouting was assessed as described previously (Sulaiman et al., Sci Rep 6:25509 (2016); Basavarajappa et al., EMBO Mol Med 9:786-801 (2017)). Briefly, choroid-sclera was dissected from 7 to 8 week old mouse eyes and pieces were embedded in Matrigel (growth factor reduced) and grown in EGM-2 medium containing antibiotics for 72 hours to allow sprouting to initiate. The indicated concentrations of APX2009 and APX2014 compounds (in DMSO, final DMSO concentration 0.5 and 0.2%, respectively) were added and growth allowed to proceed for 48 hours Images were taken and growth was quantified by measuring the distance from the edge of the choroidal piece to the growth front in four directions per sample using ImageJ software.

[5] = system: HIF-regulated genes; assay: RNA-Seq of HIF-regulated genes in HRECs; format: cell-based, human; conditions: 0.1 and 1 μM, 6 and 24 hours
Method: Human retinal endothelial cells (HRECs) (Cell Systems, Inc. Kirkland, Wash.) were plated in 6-well plates and treated with 0.1 μM APX2009, 1 μM APX2009 or DMSO for 6 hours and 24 hours. Cells were washed once after treatment with PBS, collected and frozen. This process was repeated to collect treated cells in 4 different passages. RNA was extracted in 300 μL Trizol (Life Technologies, Carlsbad, Calif.) and flash frozen at −80° C. The SMARTer system (Clontech, Mountain View, Calif.) was used to generate cDNA from cells. The dscDNA quantity and quality was assessed using an Agilent Bioanalyzer (Agilent Technologies, Santa Clara, Calif., USA) with the High Sensitivity DNA Chip. […] The IUSM Genomics Facility prepared libraries using a Nextera kit (Illumina, San Diego, Calif.). DNAs were sequenced using the Illumina HiSeq 4000.

[6] = system: APE1 repair activity in neurons; conditions: cited from earlier work

CCC/C(=C\C1=C(OC)C(=O)c2ccccc2C1=O)C(=O)N(CC)CC [APX2009, (2E)-2-[(3-methoxy-1,4-dioxo-1,4-dihydronaphthalen-2-yl)methylidene]-N,N-diethylpentanamide]
cells going through S phase (Ki-67 staining, EdU incorporation) [1]: reduced the number of cells going through S phase
cell cycle phase distribution [2]: modest increase in cells in G0/G1 phase
translocation of p65 into the nucleus in response to TNF-α [3]: dose-dependently attenuated
reduction of choroidal sprouting compared to control ([4]; at 10 μM): ~70%
concentrations inhibiting choroidal sprouting ex vivo [4]: low micromolar
expression of HIF regulated genes (RNA-Seq) [5]: blocked HIF regulated genes in a concentration dependent manner
APE1 repair activity in neurons [6]: can enhance APE1 repair activity

CCC/C(=C\C1=C(OC)C(=O)c2ccccc2C1=O)C(=O)NOC [APX2014, (2E)-2-[(3-methoxy-1,4-dioxo-1,4-dihydronapthalen-2-yl)methylidene]-N-methoxypentanamide]
cells going through S phase (Ki-67 staining, EdU incorporation) [1]: reduced the number of cells going through S phase
cell cycle phase distribution [2]: modest increase in cells in G0/G1 phase
translocation of p65 into the nucleus in response to TNF-α [3]: dose-dependently attenuated
reduction of choroidal sprouting compared to control ([4]; at 1 μM (highest concentration tested)): ~60%
concentrations inhibiting choroidal sprouting ex vivo [4]: high nanomolar
